Reference: the supplement of paper PMC10307832

Compound: Cn1cnc2c(F)c(Nc3ccc(Br)cc3Cl)c(C(=O)NOCCO)cc21 [Selumetinib] + COc1cccc2cc(-c3nc([C@H]4CC[C@H](C(=O)O)CC4)n4ncnc(N)c34)[nH]c12 [OSI-027] (partner 0.5 µM)
Assay: relative viability (nuclei count vs DMSO), 5 days (fraction); higher = more cells survive
Settings: first compound 0.02 µM
Method in brief: (§1)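 Cells from lung cancer lines were seeded into 1536-well plates and, one day later, dosed by pin tool. Treatments were either a single drug or a fixed dose of an anchor drug with five library-drug doses (not always all listed) in √10 steps. After 5 days, nuclei were stained in a one-step fixation (final 0.05% Triton X-100, 1% formaldehyde, 1 ug/ml Hoechst) and counted on 4× images, and relative viability is the treated-to-vehicle nuclei ratio, as the median of duplicate plates.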

| Cell Line | relative viability |
| --- | --- |
| NCI-H522 | 0.693 |
| NCI-H1623 | 0.39 |
| PC-14 | 0.752 |
| NCI-H1666 | 0.909 |
| NCI-H1755 | 0.745 |
| NCI-H2023 | 0.392 |
| EPLC-272H | 0.284 |
| LCLC-97TM1 | 0.487 |
| PC-3 [JPC-3] | 0.712 |
| LOU-NH91 | 0.701 |
| NCI-H647 | 0.717 |
| NCI-H23 | 0.605 |
| EMC-BAC-2 | 0.42 |
| NCI-H2126 | 0.676 |
| HCC-44 | 0.482 |
| NCI-H1734 | 0.557 |
| NCI-H650 | 0.66 |

| Cell Line | relative viability |
| --- | --- |
| LK-2 | 0.2 |
| NCI-H2228 | 0.48 |
| NCI-H2342 | 0.611 |
| SK-MES-1 | 0.603 |
| HARA | 0.481 |
| COR-L23 | 0.798 |
| COR-L 105 | 0.612 |
| LC-2-ad | 0.828 |
| ChaGo-K-1 | 0.562 |
| NCI-H2170 | 0.712 |
| SW 900 | 0.594 |
| NCI-H1648 | 0.29 |
| NCI-H1395 | 0.625 |
| NCI-H441 | 0.593 |
| NCI-H1650 | 0.677 |
| NCI-H1793 | 0.251 |
| LCLC-103H | 0.474 |

Same assay, conditions: first compound 0.06325 µM

| Cell Line | relative viability |
| --- | --- |
| NCI-H522 | 0.64 |
| NCI-H1623 | 0.383 |
| PC-14 | 0.716 |
| NCI-H1666 | 0.717 |
| NCI-H1755 | 0.698 |
| NCI-H2023 | 0.348 |
| EPLC-272H | 0.259 |
| LCLC-97TM1 | 0.386 |
| PC-3 [JPC-3] | 0.752 |
| LOU-NH91 | 0.68 |
| NCI-H647 | 0.512 |
| NCI-H23 | 0.561 |
| EMC-BAC-2 | 0.447 |
| NCI-H2126 | 0.597 |
| HCC-44 | 0.388 |
| NCI-H1734 | 0.635 |
| NCI-H650 | 0.806 |

| Cell Line | relative viability |
| --- | --- |
| LK-2 | 0.229 |
| NCI-H2228 | 0.512 |
| NCI-H2342 | 0.6 |
| SK-MES-1 | 0.598 |
| HARA | 0.443 |
| COR-L23 | 0.782 |
| COR-L 105 | 0.46 |
| LC-2-ad | 0.662 |
| ChaGo-K-1 | 0.504 |
| NCI-H2170 | 0.714 |
| SW 900 | 0.554 |
| NCI-H1648 | 0.266 |
| NCI-H1395 | 0.641 |
| NCI-H441 | 0.494 |
| NCI-H1650 | 0.405 |
| NCI-H1793 | 0.243 |
| LCLC-103H | 0.425 |

Same assay, conditions: first compound 0.2 µM

| Cell Line | relative viability |
| --- | --- |
| NCI-H522 | 0.685 |
| NCI-H1623 | 0.343 |
| PC-14 | 0.73 |
| NCI-H1666 | 0.793 |
| NCI-H1755 | 0.681 |
| NCI-H2023 | 0.318 |
| EPLC-272H | 0.236 |
| LCLC-97TM1 | 0.325 |
| PC-3 [JPC-3] | 0.749 |
| LOU-NH91 | 0.646 |
| NCI-H647 | 0.614 |
| NCI-H23 | 0.526 |
| EMC-BAC-2 | 0.511 |
| NCI-H2126 | 0.577 |
| HCC-44 | 0.35 |
| NCI-H1734 | 0.539 |
| NCI-H650 | 0.825 |

| Cell Line | relative viability |
| --- | --- |
| LK-2 | 0.203 |
| NCI-H2228 | 0.402 |
| NCI-H2342 | 0.46 |
| SK-MES-1 | 0.587 |
| HARA | 0.327 |
| COR-L23 | 0.753 |
| COR-L 105 | 0.467 |
| LC-2-ad | 0.631 |
| ChaGo-K-1 | 0.524 |
| NCI-H2170 | 0.664 |
| SW 900 | 0.477 |
| NCI-H1648 | 0.293 |
| NCI-H1395 | 0.628 |
| NCI-H441 | 0.598 |
| NCI-H1650 | 0.637 |
| NCI-H1793 | 0.231 |
| LCLC-103H | 0.453 |

Same assay, conditions: first compound 0.6325 µM

| Cell Line | relative viability |
| --- | --- |
| NCI-H522 | 0.682 |
| NCI-H1623 | 0.359 |
| PC-14 | 0.538 |
| NCI-H1666 | 0.717 |
| NCI-H1755 | 0.673 |
| NCI-H2023 | 0.375 |
| EPLC-272H | 0.183 |
| LCLC-97TM1 | 0.249 |
| PC-3 [JPC-3] | 0.787 |
| LOU-NH91 | 0.615 |
| NCI-H647 | 0.478 |
| NCI-H23 | 0.443 |
| EMC-BAC-2 | 0.483 |
| NCI-H2126 | 0.606 |
| HCC-44 | 0.368 |
| NCI-H1734 | 0.537 |
| NCI-H650 | 0.826 |

| Cell Line | relative viability |
| --- | --- |
| LK-2 | 0.189 |
| NCI-H2228 | 0.374 |
| NCI-H2342 | 0.59 |
| SK-MES-1 | 0.447 |
| HARA | 0.263 |
| COR-L23 | 0.565 |
| COR-L 105 | 0.343 |
| LC-2-ad | 0.726 |
| ChaGo-K-1 | 0.528 |
| NCI-H2170 | 0.684 |
| SW 900 | 0.588 |
| NCI-H1648 | 0.289 |
| NCI-H1395 | 0.631 |
| NCI-H441 | 0.517 |
| NCI-H1650 | 0.548 |
| NCI-H1793 | 0.258 |
| LCLC-103H | 0.44 |

Compound: CC1(C)CCC(CN2CCN(c3ccc(C(=O)NS(=O)(=O)c4ccc(NCC5CCOCC5)c([N+](=O)[O-])c4)c(Oc4cnc5[nH]ccc5c4)c3)CC2)=C(c2ccc(Cl)cc2)C1 [Venetoclax] + CS(=O)(=O)CCNCc1ccc(-c2ccc3ncnc(Nc4ccc(OCc5cccc(F)c5)c(Cl)c4)c3c2)o1 [Lapatinib] (partner 2 µM)
Assay: as above
Settings: first compound 0.01 µM
Method in brief: as §1

| Cell Line | relative viability |
| --- | --- |
| PC-14 | 0.367 |
| NCI-H1666 | 0.536 |
| EBC-1 | 0.213 |
| NCI-H1755 | 1.05 |
| NCI-H2023 | 0.935 |
| PC-3 [JPC-3] | 0.474 |
| LOU-NH91 | 0.757 |
| NCI-H647 | 1.14 |
| NCI-H23 | 1.11 |
| EMC-BAC-2 | 0.88 |
| NCI-H2126 | 0.738 |
| Calu-6 | 1.08 |
| HCC-44 | 0.981 |
| NCI-H1734 | 1.1 |
| NCI-H650 | 0.726 |
